The molecules below were run against T1, mGluR2 receptor (metabotropic glutamate receptor 2) (Homo sapiens, UniProt Q14416) (assay: mGluR2 Potentiator Screen, FLIPR, EC10-EC20 glutamate challenge). Conditions: not given.
T1 construct: expressed in transfected cells
T1 sequence (Q14416 19-872, species assumed): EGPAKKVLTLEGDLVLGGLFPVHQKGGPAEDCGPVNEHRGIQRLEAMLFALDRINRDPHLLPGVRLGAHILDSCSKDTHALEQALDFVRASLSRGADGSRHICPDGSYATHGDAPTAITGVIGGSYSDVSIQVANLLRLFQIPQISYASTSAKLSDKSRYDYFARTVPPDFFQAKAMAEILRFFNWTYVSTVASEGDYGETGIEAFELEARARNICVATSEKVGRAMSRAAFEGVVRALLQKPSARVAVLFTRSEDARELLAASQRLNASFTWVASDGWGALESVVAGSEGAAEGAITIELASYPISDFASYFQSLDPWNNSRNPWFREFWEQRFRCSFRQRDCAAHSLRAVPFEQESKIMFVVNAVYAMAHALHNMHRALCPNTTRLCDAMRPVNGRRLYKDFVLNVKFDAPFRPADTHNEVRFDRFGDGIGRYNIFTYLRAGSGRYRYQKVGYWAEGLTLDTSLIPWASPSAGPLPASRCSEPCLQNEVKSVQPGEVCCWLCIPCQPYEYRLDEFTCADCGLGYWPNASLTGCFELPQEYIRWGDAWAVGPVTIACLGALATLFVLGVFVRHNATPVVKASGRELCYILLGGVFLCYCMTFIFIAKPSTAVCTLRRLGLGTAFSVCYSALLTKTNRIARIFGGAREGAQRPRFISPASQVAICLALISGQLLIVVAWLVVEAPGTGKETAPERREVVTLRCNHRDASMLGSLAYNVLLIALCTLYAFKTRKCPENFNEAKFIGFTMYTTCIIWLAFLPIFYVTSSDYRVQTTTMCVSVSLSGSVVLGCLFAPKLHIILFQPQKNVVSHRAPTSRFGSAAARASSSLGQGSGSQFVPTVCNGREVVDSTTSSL
Assay type: cell-based
Protocol: Procedure for mGluR2 Potentiator Screen NLB methods EC10-EC20 Challenge Cell Culture and Plating:
Cells used for this screen are HEK cells stably transfected with the mGluR2 receptor (metabotropic glutamate receptor 2) and the Gα15 G protein. Clones were identified by functional activity (FLIPR). Cells are grown in growth media containing: DMEM High Glucose with Glutamine and Na Pyruvate (GIBCO), 10% (v/v) Heat inactivate FBS (GIBCO), G418 500 ug/ml (from 50 mg/ml stock) (GIBCO) and Blasticidin 3 ug/ml (from 5 mg/ml stock made in H2O) (Invitrogen).
2 days before the assay cell are trypsinized with 0.25% trysin/EDTA (GIBCO), spun down at 1000 rpm for 5 minutes, resuspended in growth media and plated on polystyrene 384 well black wall 1 clear bottom poly-D-lysine coated plates at a density of approximately 18,000 cells/well in a volume of 50 μL per well. One day before the assay the growth media is removed from the plates by flicking, and replaced with media containing DMEM High Glucose without Glutamine and Na Pyruvate (GIBCO) and 10% (v/v) dialyzed FBS (GIBCO). The reason for the removal of glutamine the day before the assay is to minimize the amount of glutamate that will be present during the assay, as endogenous glutarnate released from the cells can reduce the fluorescent response and interfere with the FLIPR screen.
FLIPR Methods and Data Analysis:
On the day of the assay, the FLIPR assay is performed using the following methods.
The pH is adjusted to 7.4 with 1 M NaOH. Prepare a 2 mM (approx.) stock solution of Fluo-4,am (Molecular Probes) dye in DMSO-22 μl DMSO per 50 ug vial (440 μL per 1 mg vial). Make a 1 mM (approx.) flou-4, PA working solution per vial by adding 22 μl of 20% pluronic acid (PA), (Molecular Probes) in DMSO to each 50 ug vial (440 μL per 1 mg vial). Prepare a 250 mM Probenecid (Sigma) stock solution by dissolving 0.71 g into 5 ml 1N NaOH and 5 ml assay buffer (for each liter of assay wash buffer)L Make 4 uM (approx.) dye incubation media by adding […] per 11 ml DMEM high glucose without glutamine (220 ml per 1 mg vial). Add 110 μL probenecid stock per 11 ml (2.5 mM final [concentration]). To the dye media add 3 units/ml of glutamic-pyruvic transaminase (GPT, Sigma) and 3 mM Na Pyruvate. The assay has worked with dye concentrations from 2 uM to 8 uM dye as well. To the assay buffer from drug preparation, add 1.83 mls DMSO and 400 μL 15.8% P104 (from New Leads biology) per liter for final concentrations of 0.18% DMSO and 0.006% P104. To the assay buffer for cell washing, add probenecid in the same manner and concentration that was used for the dye media.
Remove growth media from cell plates by flicking. Add 50 μl/well dye solution. Incubate 1 hour at 37° C. and 5% CO2. Remove dye solution and wash 3 times with assay buffer+probenecid (100 μl probenecid stock per 10 ml buffer), leaving 30 μL/well assay buffer. Wait at least 10-15 minutes. Compounds and agonist challenge additions are performed with the FLIPR. The 1st addition is for test compounds, which are added as 15 μL of 4×[concentration] of potentiator. The second 2nd addition is 15 μL of 4×[concentration] of agonist or challenge. This achieves 1× concentration of all compounds only after 2nd addition. The 1st and 2nd additions are performed separately using the FLIPR, which give 2 different data files. Compounds are pretreated at least 30 minutes before agonist addition,
Results are analyzed by dividing the peak fluorescent value of the FLIPR response by the […] to achieve a ratio response. The ratios are then analyzed by curve fitting programs. […] Maximum values for dose response curves (forced fitting) are derived from standards on the plate.
Compound Preparation and Glutamate Challenge:
Compounds are delivered as 10 mM DMSO stocks or as powders, Powders are solubilized in DMSO at 10 mM (as solubility allows). Compounds are sonicated in a heated water bath (35-40° C.) for at least 20 minutes.
Molecule `COc1cc(C(F)(F)F)ccc1[C@H]1CCN(Cc2nc3cnccc3n2C)C[C@H]1C` (single isomer, unassigned) [compound 141] has an EC50 of 1310 nM. For `COc1cc(C(F)(F)F)ccc1[C@H]1CCN(Cc2nc3cnccc3n2C)C[C@H]1C` (single isomer, unassigned) [compound 142], the EC50 was > 314 nM. For `C[C@@H]1CN(Cc2nc3cnccc3n2C)CC[C@@H]1c1ccc(C(F)(F)F)cc1F` (single isomer, unassigned) [compound 143], the EC50 was 1180 nM. Work on `C[C@@H]1CN(Cc2nc3cnccc3n2C)CC[C@@H]1c1ccc(C(F)(F)F)cc1F` (single isomer, unassigned) [compound 144] yielded an EC50 of 23 nM. With `C[C@@H]1CN(Cc2nc3cnccc3n2C)CC[C@@H]1c1ccc(OC(F)(F)F)cc1F` (single isomer, unassigned) [compound 159] the EC50 was < 31.3 nM. For `C[C@@H]1CN(Cc2nc3ncccc3n2C)CC[C@@H]1c1ccc(C(F)(F)F)cc1Cl` (single isomer, unassigned) [compound 162], the EC50 was < 18 nM. Molecule `C[C@@H]1CN(Cc2nc3ncccc3n2C)CC[C@@H]1c1ccc(C(F)(F)F)cc1Cl` (single isomer, unassigned) [compound 163] has an EC50 of 396 nM. In the case of `C[C@@H]1CN(Cc2nc3cnccc3n2C)CC[C@@H]1c1ccc(C(F)(F)F)cc1Cl` (single isomer, unassigned) [compound 171], the EC50 is reported as 1520 nM. `C[C@@H]1CN(Cc2nc3cnccc3n2C)CC[C@@H]1c1ccc(C(F)(F)F)cc1Cl` (single isomer, unassigned) [compound 172] was tested, and the EC50 was 48.5 nM. In the case of `C[C@@H]1CN(Cc2nc3cnccc3n2C)CC[C@@H]1c1ccc(OC(F)(F)F)cc1` (single isomer, unassigned) [compound 175], the EC50 is reported as > 3200 nM. `C[C@@H]1CN(Cc2nc3cnccc3n2C)CC[C@@H]1c1ccc(OC(F)(F)F)cc1` (single isomer, unassigned) [compound 176] was tested, and the EC50 was 98.9 nM. `C[C@@H]1CN(Cc2nc3cnccc3n2C)CC[C@@H]1c1ccc(C(F)(F)F)c(F)c1` (single isomer, unassigned) [compound 183] gave an EC50 of 53.2 nM. `C[C@@H]1CN(Cc2nc3cnccc3n2C)CC[C@@H]1c1ccc(C(F)(F)F)c(F)c1` (single isomer, unassigned) [compound 184] was tested, and the EC50 was > 2710 nM. `C[C@@H]1CN(Cc2nc3ncccc3n2C)CC[C@@H]1c1ccc(Cl)cc1Cl` (single isomer, unassigned) [compound 185] showed an EC50 of 64.2 nM. Molecule `C[C@@H]1CN(Cc2nc3ncccc3n2C)CC[C@@H]1c1ccc(Cl)cc1Cl` (single isomer, unassigned) [compound 186] has an EC50 of 611 nM. Work on `C[C@@H]1CN(Cc2nc3cnccc3n2C)CC[C@@H]1c1ccc(OC(F)(F)F)cc1F` (single isomer, unassigned) [compound 196] yielded an EC50 of 56 nM. For `CC(C)Oc1ccc([C@H]2CCN(Cc3nc4ncccc4n3C)C[C@H]2C)c(F)c1` (single isomer, unassigned) [compound 217], the EC50 was 29.8 nM. `CC(C)Oc1ccc([C@H]2CCN(Cc3nc4ncccc4n3C)C[C@H]2C)c(F)c1` (single isomer, unassigned) [compound 218] was tested, and the EC50 was > 909 nM. In the case of `CC(C)Oc1ccc([C@H]2CCN(Cc3nc4cnccc4n3C)C[C@H]2C)c(F)c1` (single isomer, unassigned) [compound 219], the EC50 is reported as 60.6 nM. In the case of `CC(C)Oc1ccc([C@H]2CCN(Cc3nc4cnccc4n3C)C[C@H]2C)c(F)c1` (single isomer, unassigned) [compound 220], the EC50 is reported as > 1190 nM. `CC(C)Oc1ccc([C@H]2CCN(Cc3nc4ncccc4n3C)C[C@H]2C)c(Cl)c1` (single isomer, unassigned) [compound 221] gave an EC50 of 77.8 nM. `CC(C)Oc1ccc([C@H]2CCN(Cc3nc4ncccc4n3C)C[C@H]2C)c(Cl)c1` (single isomer, unassigned) [compound 222] was tested, and the EC50 was > 603 nM. For `C[C@@H]1CN(Cc2nc3ncccc3n2C)CC[C@@H]1c1ccc(OC(F)F)cc1` (single isomer, unassigned) [compound 223], the EC50 was > 129 nM. For `C[C@@H]1CN(Cc2nc3ncccc3n2C)CC[C@@H]1c1ccc(OC(F)F)cc1` (single isomer, unassigned) [compound 224], the EC50 was > 1920 nM. For `C[C@@H]1CN(Cc2nc3cnccc3n2C)CC[C@@H]1c1cc(F)c(F)cc1F` (single isomer, unassigned) [compound 225], the EC50 was 95 nM. For `C[C@@H]1CN(Cc2nc3cnccc3n2C)CC[C@@H]1c1cc(F)c(F)cc1F` (single isomer, unassigned) [compound 226], the EC50 was > 1260 nM. Molecule `FC(F)(F)c1ccc(C2CCN(Cc3nc4nccc5c4n3CCC5)CC2)cc1` [Example 126, 2-({4-[4-(trifluoromethyl)phenyl]-piperidin-1-yl}methyl)-5,6-dihydro-4H-imidazo[4,5,1-ij]-1,7-naphthyridine] has an EC50 of 62.6 nM. In the case of `COc1cc(C(F)(F)F)ccc1C1CCN(Cc2nc3nccc4c3n2CCC4)CC1` [Example 135, 2-({4-[2-methoxy-4-(trifluoromethyl)phenyl]-piperidin-1-yl}methyl)-5,6-dihydro-4H-imidazo[4,5,1-ij]-1,7-naphthyridine], the EC50 is reported as < 5.43 nM. `CCCOc1ccc(Cl)cc1C1CCN(Cc2nc3ncccc3n2C)CC1` [compound 38] showed an EC50 of 392 nM. With `CCCOc1ccc(Cl)cc1C1CCN(Cc2nc3cnccc3n2C)CC1` [compound 39] the EC50 was 396 nM.

Same assay, conditions: HEK cells stably transfected with mGluR2 and Gα15; FLIPR (Fluo-4); potentiation of an EC10 to EC20 concentration of glutamate; Table 9
Molecule `FC(F)(F)c1ccc(C2CCN(Cc3nc4nccc5c4n3CCC5)CC2)cc1` [Example 126, 2-({4-[4-(trifluoromethyl)phenyl]-piperidin-1-yl}methyl)-5,6-dihydro-4H-imidazo[4,5,1-ij]-1,7-naphthyridine] has an EC50 of 62.6 nM. `COc1cc(C(F)(F)F)ccc1C1CCN(Cc2nc3nccc4c3n2CCC4)CC1` [Example 135, 2-({4-[2-methoxy-4-(trifluoromethyl)phenyl]-piperidin-1-yl}methyl)-5,6-dihydro-4H-imidazo[4,5,1-ij]-1,7-naphthyridine] was tested, and the EC50 was < 5.43 nM.

Same assay, conditions: mGluR2 potentiator screen, FLIPR, EC10-EC20 glutamate challenge
For `C[C@@H]1CN(Cc2nc3ncccc3n2C)CC[C@@H]1c1ccc(OC(F)F)cc1Cl` (single isomer, unassigned) [compound 244], the EC50 was 36 nM. For `C[C@@H]1CN(Cc2nc3ncccc3n2C)CC[C@@H]1c1ccc(OC(F)F)cc1Cl` (single isomer, unassigned) [compound 245], the EC50 was 262 nM. `C[C@@H]1CN(Cc2nc3cnccc3n2C)CC[C@@H]1c1ccc(OC(F)F)cc1Cl` (single isomer, unassigned) [compound 246] showed an EC50 of 99.9 nM. In the case of `C[C@@H]1CN(Cc2nc3cnccc3n2C)CC[C@@H]1c1ccc(OC(F)F)cc1Cl` (single isomer, unassigned) [compound 247], the EC50 is reported as > 1410 nM. `C[C@@H]1CN(Cc2nc3ncccc3n2C)CC[C@@H]1c1ccc(F)cc1C(F)(F)F` (single isomer, unassigned) [compound 251] was tested, and the EC50 was 21 nM. `C[C@@H]1CN(Cc2nc3ncccc3n2C)CC[C@@H]1c1ccc(F)cc1C(F)(F)F` (single isomer, unassigned) [compound 252] showed an EC50 of 288 nM. `C[C@@H]1CN(Cc2nc3cnccc3n2C)CC[C@@H]1c1ccc(OC(F)(F)F)cc1Cl` (single isomer, unassigned) [compound 253] gave an EC50 of 1820 nM. In the case of `C[C@@H]1CN(Cc2nc3cnccc3n2C)CC[C@@H]1c1ccc(OC(F)(F)F)cc1Cl` (single isomer, unassigned) [compound 254], the EC50 is reported as 86.6 nM. `C[C@@H]1CN(Cc2nc3ncccc3n2C)CC[C@@H]1c1ccc(OC(F)(F)F)cc1Cl` (single isomer, unassigned) [compound 255] was tested, and the EC50 was 76.9 nM. `C[C@@H]1CN(Cc2nc3ncccc3n2C)CC[C@@H]1c1ccc(OC(F)(F)F)cc1Cl` (single isomer, unassigned) [compound 256] was tested, and the EC50 was > 704 nM. `COc1cc(F)ccc1[C@H]1CCN(Cc2nc3cnccc3n2C)C[C@H]1C` (single isomer, unassigned) [compound 259] gave an EC50 of 1460 nM. For `COc1cc(F)ccc1[C@H]1CCN(Cc2nc3cnccc3n2C)C[C@H]1C` (single isomer, unassigned) [compound 260], the EC50 was 125 nM.
